Assay [1] concerns Streptococcus pneumoniae (ATCC 49619). The assay is described as follows: Antibacterial MIC assay (microbroth dilution, CLSI). Format: cell-based. The note with it: 35° C., 16-20 hours; for MIC Streptococcus pneumoniae (ATCC 49619): 3% lysed horse blood. From the text:
(§1) All MIC testing of bacteria followed the Clinical and Laboratory Standards Institute (CLSI) guidelines for antimicrobial testing of aerobic bacteria (Methods for Dilution Antimicrobial Susceptibility Tests for Bacteria that Grow Aerobically; Approved Standard—Tenth Edition, M07-A10; Performance Standards for Antimicrobial Susceptibility Testing; Twenty-fifth Informational Supplement, M100-S25).
(§2) Briefly, the microbroth dilution MIC method was used to quantitatively measure the in vitro antibacterial activity of a compound against a given bacterial isolate. The following bacterial strains were evaluated: Staphylococcus aureus, MRSA (ATCC 33591) and Streptococcus pneumoniae (ATCC 49619). Bacteria were grown in cation-adjusted Mueller-Hinton broth, with additions as required per species growth requirements (e.g. 3% lysed horse blood for fastidious organisms such as S. pneumoniae). A direct colony suspension in saline was prepared from colonies on an overnight agar plate to achieve a turbidity equivalent to 0.5 McFarland standard, which was subsequently diluted into the assay plate to achieve 5×10^5 CFU/mL. Assays plates were prepared by 2-fold dilution of compound across the plate and included a positive growth control.
(In broth dilution the organism is exposed to a series of concentrations in liquid medium.)

Assay [2] concerns Staphylococcus aureus, MRSA (ATCC 33591). The assay is described as above. To be noted: 35° C., 16-20 hours. Format: cell-based.
From the text: as §1, §2

In brackets after ≈: the same amount, converted by molar mass.

In general, MIC refers to the smallest concentration in the dilution series that meets the test's criterion for growth inhibition. High values mean a need for much substance, low ones inhibition by little substance.

Regarding `CONC[C@]1(C)C[C@@H](OC(=O)COc2ccc3c(c2F)B(O)OC3)[C@]2(C)[C@H](C)CC[C@]3(CCC(=O)[C@H]32)[C@@H](C)[C@@H]1O` [Compound 45, (3aR,4R,5R,7S,8S,9R,9aS,12R)-8-hydroxy-7-((methoxyamino)methyl)-4,7,9,12-tetramethyl-3-oxodecahydro-4,9a-propanocyclopenta[8]annulen-5-yl2-((7-fluoro-1-hydroxy-1,3-dihydrobenzo[c][1,2]oxaborol-6-yl)oxy)acetate], the “MIC Streptococcus pneumoniae (ATCC 49619)” value (from here on “MIC Streptococcus pneumoniae”) in assay [1] is reported as “C (4-32 is C)”. Also, the “MIC Staphylococcus aureus, MRSA (ATCC 33591)” value (“MIC Staphylococcus aureus” for short) in assay [2] was “B (0.5-2 is B)”.
On the same counts, the results for `C[C@@H]1CC[C@@]23CCC(=O)[C@H]2[C@]1(C)[C@H](OC(=O)COc1ccc2c(c1F)B(O)OC2)C[C@@](C)(CCC(=O)N1CC[C@H](O)C1)[C@@H](O)[C@@H]3C` [Compound 8, (3aR,4R,5R,7R,8S,9R,9aS,12R)-8-hydroxy-7-(3-((S)-3-hydroxypyrrolidin-1-yl)-3-oxopropyl)-4,7,9,12-tetramethyl-3-oxodecahydro-4,9a-propanocyclopenta[8]annulen-5-yl2-((7-fluoro-1-hydroxy-1,3-dihydrobenzo[c][1,2]oxaborol-6-yl)oxy)acetate] are “B (0.5-2 is B)” and “C (4-32 is C)”.
On the same counts, the results for `C#CC[C@]1(C)C[C@@H](OC(=O)COc2ccc3c(c2F)B(O)OC3)[C@]2(C)[C@H](C)CC[C@]3(CCC(=O)[C@H]32)[C@@H](C)[C@@H]1O` [Compound 22, (3aR,4R,5R,7R,8S,9R,9aS,12R)-8-hydroxy-4,7,9,12-tetramethyl-3-oxo-7-(prop-2-yn-1-yl)decahydro-4,9a-propanocyclopenta[8]annulen-5-yl2-((7-fluoro-1-hydroxy-1,3-dihydrobenzo[c][1,2]oxaborol-6-yl)oxy)acetate] are “B (0.5-2 is B)” and “A (MIC of ≤0.25 is A)”.
For `C[C@@H]1CC[C@@]23CCC(=O)[C@H]2[C@]1(C)[C@H](OC(=O)COc1ccc2c(c1F)B(O)OC2)C[C@@](C)(/C=C/C(N)=O)[C@@H](O)[C@@H]3C` [Compound 14, (3aR,4R,5R,7S,8S,9R,9aS,12R)-7-((E)-3-amino-3-oxoprop-1-en-1-yl)-8-hydroxy-4,7,9,12-tetramethyl-3-oxodecahydro-4,9a-propanocyclopenta[8]annulen-5-yl2-((7-fluoro-1-hydroxy-1,3-dihydrobenzo[c][1,2]oxaborol-6-yl)oxy)acetate] the same measures were “B (0.5-2 is B)” and “B (0.5-2 is B)”.
For `CCN(CC)CC[C@]1(C)C[C@@H](OC(=O)COc2ccc3c(c2F)B(O)OC3)[C@]2(C)[C@H](C)CC[C@]3(CCC(=O)[C@H]32)[C@@H](C)[C@@H]1O` [Compound 42, (3aR,4R,5R,7R,8S,9R,9aS,12R)-7-(2-(diethylamino)ethyl)-8-hydroxy-4,7,9,12-tetramethyl-3-oxodecahydro-4,9a-propanocyclopenta[8]annulen-5-yl2-((7-fluoro-1-hydroxy-1,3-dihydrobenzo[c][1,2]oxaborol-6-yl)oxy)acetate], the “MIC Streptococcus pneumoniae” value in assay [1] was “D (≥64 is D)”. Besides, the “MIC Staphylococcus aureus” value in assay [2] is on record as “C (4-32 is C)”.
As for `C[C@@H]1CC[C@@]23CCC(=O)[C@H]2[C@]1(C)[C@H](OC(=O)COc1ccc2c(c1F)B(O)OC2)C[C@@](C)(CCN1CCOCC1)[C@@H](O)[C@@H]3C` [Compound 41, (3aR,4R,5R,7R,8S,9R,9aS,12R)-8-hydroxy-4,7,9,12-tetramethyl-7-(2-morpholinoethyl)-3-oxodecahydro-4,9a-propanocyclopenta[8]annulen-5-yl 2-((7-fluoro-1-hydroxy-1,3-dihydrobenzo[c][1,2]oxaborol-6-yl)oxy)acetate], the MIC in assay [1] (Streptococcus pneumoniae, ATCC49619, 3% lysed horse blood) lay within 4 to 32 µg/mL (≈ 6.5 to 52 µM); in assay [2] (Staphylococcus aureus) it was 4 to 32 µg/mL (≈ 6.5 to 52 µM).
As for `C[C@@H]1CC[C@@]23CCC(=O)[C@H]2[C@]1(C)[C@H](OC(=O)COc1ccc2c(c1F)B(O)OC2)C[C@@](C)(C=O)[C@@H](O)[C@@H]3C` [Compound 31, (3aR,4R,5R,7R,8S,9R,9aS,12R)-7-formyl-8-hydroxy-4,7,9,12-tetramethyl-3-oxodecahydro-4,9a-propanocyclopenta[8]annulen-5-yl2-((7-fluoro-1-hydroxy-1,3-dihydrobenzo[c][1,2]oxaborol-6-yl)oxy)acetate], the “MIC Streptococcus pneumoniae” value in assay [1] is “B (0.5-2 is B)”. Besides, in assay [2], the “MIC Staphylococcus aureus” value is “A (MIC of ≤0.25 is A)”.
For `C[C@@H]1CC[C@@]23CCC(=O)[C@H]2[C@]1(C)[C@H](OC(=O)COc1ccc2c(c1F)B(O)OC2)C[C@@](C)([C@@H]1CO1)[C@@H](O)[C@@H]3C` [Compound 27, (3aR,4R,5R,7R,8S,9R,9aS,12R)-8-hydroxy-4,7,9,12-tetramethyl-7-((R)-oxiran-2-yl)-3-oxodecahydro-4,9a-propanocyclopenta[8]annulen-5-yl2-((7-fluoro-1-hydroxy-1,3-dihydrobenzo[c][1,2]oxaborol-6-yl)oxy)acetate] the same measures were “B (0.5-2 is B)” and “A (MIC of ≤0.25 is A)”.
For `COCC[C@]1(C)C[C@@H](OC(=O)COc2ccc3c(c2F)B(O)OC3)[C@]2(C)[C@H](C)CC[C@]3(CCC(=O)[C@H]32)[C@@H](C)[C@@H]1O` [Compound 26, (3aR,4R,5R,7R,8S,9R,9aS,12R)-8-hydroxy-7-(2-methoxyethyl)-4,7,9,12-tetramethyl-3-oxodecahydro-4,9a-propanocyclopenta[8]annulen-5-yl2-((7-fluoro-1-hydroxy-1,3-dihydrobenzo[c][1,2]oxaborol-6-yl)oxy)acetate] the same measures were “C (4-32 is C)” and “A (MIC of ≤0.25 is A)”.
On the same counts, the results for `C[C@@H]1CC[C@@]23CCC(=O)[C@H]2[C@]1(C)[C@H](OC(=O)COc1ccc2c(c1F)B(O)OC2)C[C@@](C)(CN)[C@@H](O)[C@@H]3C` [Compound 47, (3aR,4R,5R,7S,8S,9R,9aS,12R)-7-(aminomethyl)-8-hydroxy-4,7,9,12-tetramethyl-3-oxodecahydro-4,9a-propanocyclopenta[8]annulen-5-yl2-((7-fluoro-1-hydroxy-1,3-dihydrobenzo[c][1,2]oxaborol-6-yl)oxy)acetate] are “C (4-32 is C)” and “B (0.5-2 is B)”.
For `C[C@@H]1CC[C@@]23CCC(=O)[C@H]2[C@]1(C)[C@H](OC(=O)COc1ccc2c(c1F)B(O)OC2)C[C@@](C)(CCN1CCC1)[C@@H](O)[C@@H]3C` [Compound 39, (3aR,4R,5R,7R,8S,9R,9aS,12R)-7-(2-(azetidin-1-yl)ethyl)-8-hydroxy-4,7,9,12-tetramethyl-3-oxodecahydro-4,9a-propanocyclopenta[8]annulen-5-yl2-((7-fluoro-1-hydroxy-1,3-dihydrobenzo[c][1,2]oxaborol-6-yl)oxy)acetate], the “MIC Streptococcus pneumoniae” value in assay [1] was “C (4-32 is C)”. Further, in assay [2], the “MIC Staphylococcus aureus” value is “C (4-32 is C)”.
